From PMC10534582, “A Pharmacokinetic Study of Sixteen Major Bioactive Components of Jinshui-Huanxian Granules in Pulmonary Fibrosis Model and Control Rats Using Orbitrap Fusion Mass Spectrometry” (Molecules, 2023)
Where two headings read alike, the source gives them in different places.

Legend:
[1] = Pharmacokinetics of JHG components in pulmonary fibrosis (PF) model rats after intragastric administration of JHGs (plasma, Orbitrap Fusion MS); assay type: in vivo, Sprague Dawley (SD) rats; conditions: for pharmacokinetic process (versus dosage) / Tmax: PF model rats; for pharmacokinetic process (versus dosage): low, medium, high doses of JHGs; for Tmax: male, Sprague-Dawley, rat, plasma, po, after administration of JHGs, read-out: Tmax of all dosages
Procedure: (§1) Healthy male Sprague Dawley (SD) rats of SPF grade (240 ± 20 g) were purchased from Sipeifu (Beijing, China) Biotechnology Co., Ltd. (Beijing, China), Certificate of Conformity No.: SCYK (Beijing, China) 2019-0015, Animal Quality Certificate No.: 110324220102348616. They were housed in the Animal Center of Henan University of Traditional Chinese Medicine, which passed the ethical audit, ethics number: DWLL202208003, breeding Co. 24 °C, relative humidity 50 ± 2%. The animals fasted for 12 h before the experiment and drank water freely. All feeding and experimental studies on experimental animals were in accordance with the regulations on the Management of Experimental Animals in Henan Province.
The PF model in rats was replicated by reference to the conclusion tracheal intubation method in the literature. After the rats were anesthetized, bleomycin (BLM) (5 mg/kg) was used as an induction agent and followed the tracheal intubation method. BLM solution was aspirated with a 1 mL syringe and injected into the indwelling syringe. A total of 0.3 mL of air was rapidly pushed into the syringe, the rats were immediately stroked upright so that the BLM solution was evenly distributed in both lungs. BLM was given on day 0 for modeling, then gavage was taken after day 28, with fasting without water for 12 h before sampling. The histopathological examination was performed to verify the construction of the PF model. The rats were anesthetized by the abdominal cavity, then the lung tissues were violently shocked by opening the chest, and the right lower lobe of the lung was taken and fixed in 4% formaldehyde solution, then dehydrated by sucrose gradient, paraffin-embedded, and sectioned. H&E and Masson staining were performed to observe the degree of alveolitis of lung tissue and the degree of pulmonary fibrosis, respectively. The inflammation and fibrosis of lung tissues was observed under the light microscope.
(§2) Twenty-four healthy male SD rats or PF model rats, weighing 240 ± 20 g, fasted for 12 h before the experiment and drank water freely. Both kinds of rats were randomly divided into four groups. Blank group: equal dose of water by intragastric, low dose; administration group: rats were given the equivalent human dose of JHGs by intragastric, i.e., 10.8 g of raw drug/kg/d (5.70 g/kg/d); medium-dose administration group: 2 times the human equivalent dose of JHGs by intragastric, i.e., 21.6 g of raw drug/kg/d (11.41 g/kg/d); high-dose administration group: 4 times the human equivalent dose of JHG, i.e., 43.2 g of raw drug/kg/d (22.81 g/kg/d). Blood was collected from the tail vein before and 0.083, 0.25, 0.5, 0.75, 1, 1.5, 2, 3, 4, 6, 8, 12, 18, and 24 h after dosing, respectively. A total of 0.5 mL was placed in a heparin sodium centrifuge tube. Whole blood was left for 30 min and then centrifuged in a low-temperature freezing centrifuge (4 °C, 3000 r/min) for 15 min. The upper layer of plasma was collected and stored in a refrigerator at −80 °C.
(§3) We added 50 μL of internal standard solution and 800 μL of methanol, shook for 15 min, then centrifuged at 12,000 r/min for 10 min, took the supernatant, dried in a centrifuge concentrator, added 50 μL of the initial mobile phase to the residue, dissolved, centrifuged, then separated the upper layer of the solution used as the test solution. A total of 5 μL test solution was taken into the sample for analysis. For each compound with a certain dosage, the same procedure is repeated six times in parallel. The concentration in plasma was calculated by the internal standard method.
Accucore C18 (100 mm × 2.1 mm, 2.6 μm) column at 25 °C, the mobile phase was methanol (A)-0.1% formic acid aqueous solution (B). The gradient elution program was 0–4 min (65% B-40% B), 4–5 min (40% B-40% B), 5–6 min (40% B-28% B), and 6–7 min (28% B-19% B), 7–7.5 min (19% B-10% B), 7.5–11 min (10% B-0% B), the flow rate was 0.2 mL/min, and the injection volume was 5 μL. […]

[2] = Pharmacokinetics of JHG components in control rats after intragastric administration of JHGs (plasma, Orbitrap Fusion MS); assay type: in vivo, Sprague Dawley (SD) rats; conditions: for pharmacokinetic process (Cmax and AUCs versus dosage): low, medium, high doses of JHGs; for AUC(0-inf) / AUC(0-t) / half-life / MRT last / MRT inf / Tmax / Cmax: male, rat, plasma, po; for MRT last: read-out: MRT(0-t); for MRT inf: read-out: MRT(0-∞); for Cmax: intragastric JHGs
Procedure: as §1, §2, §3
Accucore C18 (100 mm × 2.1 mm, 2.6 μm) column at 25 °C, the mobile phase was methanol (A)-0.1% formic acid aqueous solution (B). The gradient elution program was 0–4 min (65% B-40% B), 4–5 min (40% B-40% B), 5–6 min (40% B-28% B), and 6–7 min (28% B-19% B), 7–7.5 min (19% B-10% B), 7.5–11 min (10% B-0% B), the flow rate was 0.2 mL/min, and the injection volume was 5 μL.
The ion source was an electrospray ionization source (ESI). Nitrogen acted as a carrier gas. The sheath gas pressure was 35 Arb. The auxiliary gas pressure was 7 Arb. The spray voltage was 3.50 kv(+), 2.50 kv(-). The ion transport tube temperature was regulated at 300 °C. Gasification temperature was 275 °C. The resolution was 50,000. The scanning mode was set as SIM mode. The optimized parameters obtained are in Table 5.
Under the established Orbitrap Fusion MS method, the pharmacokinetics of JHG in rats were studied to investigate the dynamic changes of the active components in rats. The pharmacokinetic parameters of each component in each dosing group were calculated by […] model analysis using Kinetica 5.1 (Innaphase, Waltham, MA, USA) pharmacokinetic analysis software. The pharmacotemporal curves were plotted by the plotting software. SPSS 19.0 (IBM, Armonk, NY, USA) was used to analyze all the parameters. Independent sample tests were performed after natural logarithmic transformation for AUC0–t, Cmax. The nonparametric Mann–Whitney test was applied for Tmax, t½, and MRT0–t. p < 0.05 was considered statistically significant.

[3] = Sprague Dawley, 5.7 g/kg/day, JHGs low dose 5.70 g/kg/d
[4] = Sprague Dawley, 5.7 g/kg/day, JHGs low dose 5.70 g/kg/d, read-out: Tmax
[5] = Sprague Dawley, 5.7 g/kg/day, low dose 5.70 g/kg/d, n=6 (1st of 3 stacked values)
[6] = Sprague Dawley, 11.41 g/kg/day, JHGs medium dose 11.41 g/kg/d
[7] = Sprague Dawley, 11.41 g/kg/day, JHGs medium dose 11.41 g/kg/d, read-out: Tmax
[8] = Sprague Dawley, 11.41 g/kg/day, medium dose 11.41 g/kg/d, n=6 (2nd of 3 stacked values)
[9] = Sprague Dawley, 22.81 g/kg/day, JHGs high dose 22.81 g/kg/d
[10] = Sprague Dawley, 22.81 g/kg/day, JHGs high dose 22.81 g/kg/d, read-out: Tmax
[11] = Sprague Dawley, 22.81 g/kg/day, high dose 22.81 g/kg/d, n=6 (3rd of 3 stacked values)
[12] = Sprague-Dawley, after administration of JHGs, read-out: Tmax of all dosages

## C[C@@H]1O[C@@H](O[C@@H]2[C@@H](O)[C@H](OCCc3ccc(O)c(O)c3)O[C@H](COC(=O)/C=C/c3ccc(O)c(O)c3)[C@H]2O)[C@H](O)[C@H](O)[C@H]1O [Isoacteoside]
[1]
  pharmacokinetic process (versus dosage): linear pharmacokinetic process
[1]; PF model vs control rats
  Tmax, PF model group compared with the control group: increased about three times
[2]; JHGs high dose 22.81 g/kg/d
  Clearances: 18.7 ± 3.83 mL/min/kg
  Vss: 9.42 ± 1.03 L
[2]; JHGs low dose 5.70 g/kg/d
  Clearances: 15.2 ± 3 mL/min/kg
  Vss: 8.97 ± 2.22 L
[2]; JHGs medium dose 11.41 g/kg/d
  Clearances: 15.7 ± 1.7 mL/min/kg
  Vss: 9.67 ± 3.39 L
[2]
  pharmacokinetic process (Cmax and AUCs versus dosage): linear pharmacokinetic process
[2]; [3]
  AUC(0-inf): 35.8 ± 5.5 ng·h/mL
  AUC(0-t): 32.2 ± 4.75 ng·h/mL
  half-life: 6.86 ± 0.48 h
  MRT last: 7.15 ± 0.14 h
  MRT inf: 9.81 ± 0.84 h
[2]; [4]
  Tmax: 1 h
[2]; [5]
  Cmax: 5.67 ± 1 ng/mL
[2]; [6]
  AUC(0-inf): 61.5 ± 8.17 ng·h/mL
  AUC(0-t): 54.9 ± 7.53 ng·h/mL
  half-life: 8.24 ± 4.54 h
  MRT last: 7.03 ± 0.29 h
  MRT inf: 10.4 ± 4.06 h
[2]; [7]
  Tmax: 2 h
[2]; [8]
  Cmax: 9.31 ± 1.05 ng/mL
[2]; [9]
  AUC(0-inf): 104 ± 22.4 ng·h/mL
  AUC(0-t): 96.4 ± 18.1 ng·h/mL
  half-life: 6.1 ± 0.77 h
  MRT last: 6.64 ± 0.33 h
  MRT inf: 8.58 ± 0.98 h
[2]; [10]
  Tmax: 3 h
[2]; [11]
  Cmax: 18.4 ± 1.98 ng/mL

## CC1CCC2N(C1)CC1C3CC4C(CC(=O)C5CC(O)CCC54C)C3CCC1C2(C)O (stereo not drawn) [Peiminine]
[1]; PF model vs control rats
  Tmax, PF model group compared with the control group: decreased significantly
[2]; JHGs high dose 22.81 g/kg/d
  Clearances: 112 ± 30.2 mL/min/kg
  Vss: 67.52 ± 15.96 L
[2]; JHGs low dose 5.70 g/kg/d
  Clearances: 46.2 ± 14 mL/min/kg
  Vss: 28.03 ± 8.27 L
[2]; JHGs medium dose 11.41 g/kg/d
  Clearances: 61 ± 18.7 mL/min/kg
  Vss: 40.68 ± 9.67 L
[2]; [3]
  AUC(0-inf): 31.9 ± 9.55 ng·h/mL
  AUC(0-t): 29.1 ± 8.48 ng·h/mL
  half-life: 6.06 ± 0.22 h
  MRT last: 8.01 ± 0.09 h
  MRT inf: 10.2 ± 0.32 h
[2]; [4]
  Tmax: 4.67 ± 1.15 h
[2]; [5]
  Cmax: 2.91 ± 0.9 ng/mL
[2]; [6]
  AUC(0-inf): 43.9 ± 16.4 ng·h/mL
  AUC(0-t): 38.6 ± 13.2 ng·h/mL
  half-life: 7.97 ± 0.84 h
  MRT last: 8.23 ± 0.25 h
  MRT inf: 11.3 ± 1.03 h
[2]; [7]
  Tmax: 4 h
[2]; [8]
  Cmax: 4.22 ± 1.27 ng/mL
[2]; [9]
  AUC(0-inf): 46.1 ± 13.7 ng·h/mL
  AUC(0-t): 42 ± 11.7 ng·h/mL
  half-life: 6.82 ± 0.57 h
  MRT last: 7.84 ± 0.1 h
  MRT inf: 10.1 ± 0.42 h
[2]; [10]
  Tmax: 3 h
[2]; [11]
  Cmax: 5.31 ± 1.61 ng/mL

## COc1cc(O)c2c(c1)oc(=O)c1c3cc(O)c(O)cc3oc21 [Wedelolactone]
[1]
  pharmacokinetic process (versus dosage): linear pharmacokinetic process
[1]; PF model vs control rats
  MRT(0–t), PF model group compared with the control group: decreased
[2]; JHGs high dose 22.81 g/kg/d
  Clearances: 0.1 ± 0 mL/min/kg
  Vss: 0.07 ± 0.01 L
[2]; JHGs low dose 5.70 g/kg/d
  Clearances: 0.05 ± 0.017 mL/min/kg
  Vss: 0.04 ± 0 L
[2]; JHGs medium dose 11.41 g/kg/d
  Clearances: 0.05 ± 0 mL/min/kg
  Vss: 0.03 ± 0.01 L
[2]; [3]
  AUC(0-inf): 139 ± 45.6 ng·h/mL
  AUC(0-t): 110 ± 24.7 ng·h/mL
  half-life: 10.7 ± 3.69 h
  MRT last: 7.52 ± 0.34 h
  MRT inf: 14 ± 3.66 h
[2]; [4]
  Tmax: 2 h
[2]; [5]
  Cmax: 18.6 ± 3.98 ng/mL
[2]; [6]
  AUC(0-inf): 276 ± 35.6 ng·h/mL
  AUC(0-t): 242 ± 32.4 ng·h/mL
  half-life: 8.01 ± 1.33 h
  MRT last: 8.23 ± 0.18 h
  MRT inf: 11.6 ± 1.32 h
[2]; [7]
  Tmax: 3.67 ± 0.58 h
[2]; [8]
  Cmax: 27.8 ± 2.35 ng/mL
[2]; [9]
  AUC(0-inf): 262 ± 13.5 ng·h/mL
  AUC(0-t): 221 ± 17.2 ng·h/mL
  half-life: 8.2 ± 0.63 h
  MRT last: 7.5 ± 0.21 h
  MRT inf: 12 ± 1.32 h
[2]; [10]
  Tmax: 1.83 ± 0.29 h
[2]; [11]
  Cmax: 35.4 ± 2.29 ng/mL

## C[C@@H]1O[C@@H](OC[C@H]2O[C@@H](Oc3c(-c4ccc(O)c(O)c4)oc4cc(O)cc(O)c4c3=O)[C@H](O)[C@@H](O)[C@@H]2O)[C@H](O)[C@H](O)[C@H]1O [Rutin]
[1]
  pharmacokinetic process (versus dosage): linear pharmacokinetic process
  Tmax: ≤ 2 h
[2]
  correlation between CL, AUCs (AUC(0–t), AUC (0–∞)), t½, and dose: no correlation
[2]; [12]
  Tmax: ≤ 2 h

## COc1ccc(-c2oc3c(CC=C(C)C)c(O[C@@H]4O[C@H](CO)[C@@H](O)[C@H](O)[C@H]4O)cc(O)c3c(=O)c2O[C@@H]2O[C@@H](C)[C@H](O)[C@@H](O)[C@H]2O)cc1 [Icariin]
[1]
  Tmax: ≤ 2 h
[2]
  pharmacokinetic process (Cmax and AUCs versus dosage): linear pharmacokinetic process
[2]; [12]
  Tmax: ≤ 2 h

## OC[C@H]1O[C@@H](O[C@@H]2OC=C[C@H]3[C@H](O)[C@@H]4O[C@]4(CO)[C@@H]23)[C@H](O)[C@@H](O)[C@@H]1O [Catalpol]
[1]; PF model vs control rats, medium dose selected for comparison
  Cmax, PF model group compared with the control group: significantly decreased

## COc1ccc([C@@H]2CC(=O)c3c(O)cc(O[C@@H]4O[C@H](CO[C@@H]5O[C@@H](C)[C@H](O)[C@@H](O)[C@H]5O)[C@@H](O)[C@H](O)[C@H]4O)cc3O2)cc1O [Hesperidin]
[1]; PF model vs control rats
  Tmax, PF model group compared with the control group: decreased significantly
